Assay results taken from US20140135319A1, “6-SUBSTITUTED IMIDAZOPYRAZINES FOR USE AS MPS-1 AND TKK INHIBITORS IN THE TREATMENT OF HYPERPROLIFERATIVE DISORDERS” (BAYER INTELLECTUAL PROPERTY GMBH, priority 2010, published 2014).
pIC50: −log10 of the molar value.

Molecular target: T1, human kinase Mps-1 (Homo sapiens, UniProt P33981)
T1 construct: N-terminally GST-tagged human full length recombinant Mps-1 kinase; GST (N); purchased Invitrogen, Karslruhe, Germany PV4071
T1 sequence (P33981 1-857): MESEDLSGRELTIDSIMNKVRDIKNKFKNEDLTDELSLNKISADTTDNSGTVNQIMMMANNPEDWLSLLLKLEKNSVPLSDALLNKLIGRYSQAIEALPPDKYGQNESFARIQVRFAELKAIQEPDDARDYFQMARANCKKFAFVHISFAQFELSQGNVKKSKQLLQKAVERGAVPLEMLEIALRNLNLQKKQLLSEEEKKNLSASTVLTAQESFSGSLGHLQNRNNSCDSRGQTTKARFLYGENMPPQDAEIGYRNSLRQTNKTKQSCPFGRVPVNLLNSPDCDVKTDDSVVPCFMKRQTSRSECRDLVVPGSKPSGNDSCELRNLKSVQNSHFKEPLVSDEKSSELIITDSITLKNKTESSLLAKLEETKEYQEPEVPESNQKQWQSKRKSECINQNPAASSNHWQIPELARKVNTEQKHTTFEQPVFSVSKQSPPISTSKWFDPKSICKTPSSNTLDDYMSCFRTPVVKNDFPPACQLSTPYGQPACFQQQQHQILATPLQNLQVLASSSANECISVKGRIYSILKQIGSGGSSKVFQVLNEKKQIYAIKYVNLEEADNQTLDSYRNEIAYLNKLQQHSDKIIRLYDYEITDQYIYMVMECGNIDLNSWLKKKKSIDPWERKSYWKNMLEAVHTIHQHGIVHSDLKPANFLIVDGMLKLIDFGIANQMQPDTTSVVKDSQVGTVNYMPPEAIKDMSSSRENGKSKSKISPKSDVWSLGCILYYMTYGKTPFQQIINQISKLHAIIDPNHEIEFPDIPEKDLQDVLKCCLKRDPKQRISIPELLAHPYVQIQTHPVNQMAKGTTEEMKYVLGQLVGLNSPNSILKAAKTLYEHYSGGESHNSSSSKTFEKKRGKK
Experiment: Mps-1 kinase assay (TR-FRET)
Type: biochemical
Conditions: GST-tagged human full length recombinant Mps-1; 10 μM ATP; 1 μM peptide substrate; 60 min at 22° C.
Method in brief: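 TR-FRET read-out: after 1 h binding at 22° C, Eu-labelled anti-phospho-Ser/Thr antibody transfers to SA-XLent on the phosphorylated biotinylated peptide. The enzyme is GST-tagged full-length human Mps-1, typically about 1 nM final, in the linear range.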

SMILES	pIC50
O=C(NC1CC1)c1ccc(-c2cnc3c(NCc4ccccc4F)nc(-c4ccncc4)cn23)cc1 [Example 3-9, N-cyclopropyl-4-{8-[(2-fluorobenzyl)amino]-6-(pyrdin-4-yl)imidazo [1,2-a]pyrazin-3-yl} benzamide]	9.00
CC(C)(O)CNc1nc(-c2ccncc2)cn2c(-c3ccc(C(=O)NC4CC4)c(F)c3)cnc12 [Example 1-57, N-cyclopropyl-2-fluoro-4-{8-[(2-hydroxy-2-methylpropyl)amino]-6-(pyridin-4-yl)imidazo [1,2-a]pyrazin-3-yl} benzamide]	7.62
Cc1ccc(-c2cn3c(-c4ccc(C(=O)NC5CC5)cc4)cnc3c(NCC(C)C)n2)s1 [Example 1-15, N-cyclopropyl-4-{8-[(2-methylpropyl)amino]-6-(5-methylthiophen-2-yl)imidazo[1,2-a]pyrazin-3-yl}benzamide]	7.26
CC(C)CNc1nc(-c2ccn[nH]2)cn2c(-c3ccc(C(=O)NC4CC4)c(F)c3)cnc12 [Example 1-51, N-cyclopropyl-2-fluoro-4-{8-[(2-methylpropyl)amino]-6-(1H-pyrazol-5-yl)imidazo[1,2-a]pyrazin-3-yl}benzamide]	8.08
COCCCNc1nc(-c2ccncc2)cn2c(-c3ccc(C(=O)NC4CC4)cc3)cnc12 [Example 3-24, N-cyclopropyl-4-{8-[(3-methoxypropyl)amino]-6-(pyridin-4-yl)imidazo [1,2-a]pyrazin-3-yl} benzamide]	8.26
CC(C)CNc1nc(-c2ccnc3ccccc23)cn2c(-c3ccc(C(=O)NC4CC4)cc3)cnc12 [Example 1-4, N-cyclopropyl-4-{8-[(2-methylpropyl)amino]-6-(quinolin-4-yl)imidazo [1,2-a]pyrazin-3-yl} benzamide]	8.48
O=C(NC1CC1)c1ccc(-c2cnc3c(NCc4ccc(Cl)s4)nc(-c4ccncc4)cn23)cc1 [Example 3-31, 4-[8-{[(5-chlorothiophen-2-yl)methyl]amino}-6-(pyridin-4-yl)imidazo [1,2-a]pyrazin-3-yl]-N-cyclopropylbenzamide]	8.64
Cc1cc(-c2cnc3c(NCCC(F)(F)F)nc(-c4ccncc4)cn23)ccc1C(=O)NC1CC1 [Example 1-103, N-cyclopropyl-2-methyl-4-{6-(pyridin-4-yl)-8-[(3,3,3-trifluoropropyl)amino]imidazo[1,2-a]pyrazin-3-yl}benzamide]	8.89
Cn1ccc(CNc2nc(-c3ccncc3)cn3c(-c4ccc(C(=O)NC5CC5)cc4)cnc23)n1 [Example 3-27, N-cyclopropyl-4-[8-{[(1-methyl-1H-pyrazol-3-yl)methyl]amino}-6-(pyridin-4-yl)imidazo [1,2-a]pyrazin-3-yl] benzamide]	8.01
CC(C)CNc1nc(-c2cnn(C)c2)cn2c(-c3ccc(C(=O)NC4CC4)cc3)cnc12 [Example 1-8, N-cyclopropyl-4-{8-[(2-methylpropyl)amino]-6-(1-methyl-1H-pyrazol-4-yl)imidazo[1,2-a]pyrazin-3-yl}benzamide]	8.34
Cc1cc(-c2cnc3c(NCCC(F)(F)F)nc(C4=CCSCC4)cn23)ccc1C(=O)NC1CC1 [Example 1-79, N-cyclopropyl-4-{6-(3,6-dihydro-2H-thiopyran-4-yl)-8-[(3,3,3-trifluoro-propyl)amino]imidazo [1,2-a]pyrazin-3-yl}-2-methylbenzamide]	8.55
CC(C)CNc1nc(-c2ccn[nH]2)cn2c(-c3ccc(C(=O)NC4CC4)cc3)cnc12 [Example 1-30, N-cyclopropyl-4-{8-[(2-methylpropyl)amino]-6-(1H-pyrazol-5-yl)imidazo[1,2-a]pyrazin-3-yl}benzamide]	8.77
O=C(NC1CC1)c1ccc(-c2cnc3c(NCc4ccc(F)cc4)nc(-c4ccncc4)cn23)cc1 [Example 3-10, N-cyclopropyl-4-{8-[(4-fluorobenzyl)amino]-6-(pyrdin-4-yl)imidazo [1,2-a]pyrazin-3-yl} benzamide]	8.72
O=C(NC1CC1)c1ccc(-c2cnc3c(NCCC(F)(F)F)nc(-c4ccncc4)cn23)cc1Cl [Example 1-36, 2-chloro-N-cyclopropyl-4-{6-(pyridin-4-yl)-8-[(3,3,3-trifluoropropyl)amino]imidazo[1,2-a]pyrazin-3-yl}benzamide]	8.23
CC(C)CNc1nc(-c2cccs2)cn2c(-c3ccc(C(=O)NC4CC4)cc3)cnc12 [Example 1-9, N-cyclopropyl-4-{8-[(2-methylpropyl)amino]-6-(thiophen-2-yl)imidazo [1,2-a]pyrazin-3-yl} benzamide]	8.10
COc1ncc(-c2cn3c(-c4ccc(C(=O)NC5CC5)cc4)cnc3c(NCC(C)C)n2)cn1 [Example 1-3, N-cyclopropyl-4-{6-(2-methoxypyrimidin-5-yl)-8-[(2-methylpropyl)amino]imidazo[1,2-a]pyrazin-3-yl}benzamide]	7.90
CCCCNc1nc(-c2ccncc2)cn2c(-c3ccc(C(=O)NC4CC4)cc3)cnc12 [Example 3-13, 4-[8-(butylamino)-6-(pyridin-4-yl)imidazo [1,2-a]pyrazin-3-yl]-N-cyclopropylbenzamide]	8.77
O=C(NC1CC1)c1ccc(-c2cnc3c(NCCCO)nc(-c4ccncc4)cn23)cc1 [Example 1-85, N-cyclopropyl-4-{8-[(3-hydroxypropyl)amino]-6-(pyridin-4-yl)imidazo[1,2-a]pyrazin-3-yl}benzamide]	8.04
Cc1cc(-c2cnc3c(NCC4CCOC4)nc(C4=CCOCC4)cn23)ccc1C(=O)NC1CC1 (stereo not drawn) [Example 6-11, N-cyclopropyl-4-{6-(3,6-dihydro-2H-pyran-4-yl)-8-[(tetrahydrofuran-3-ylmethyl)amino]imidazo[1,2-a]pyrazin-3-yl}-2-methylbenzamide]	8.22
CC(C)CNc1nc(-c2cc3ccccc3s2)cn2c(-c3ccc(C(=O)NC4CC4)cc3)cnc12 [Example 1-12, 4-{6-(1-benzothiophen-2-yl)-8-[(2-methylpropyl)amino]imidazo[1,2-a]pyrazin-3-yl}-N-cyclo-propylbenzamide]	6.85
CC(C)CNc1nc(-c2ccccc2)cn2c(-c3ccc(C(=O)NC4CC4F)cc3)cnc12 (stereo not drawn) [Example 2-2, N-(2-fluorocyclopropyl)-4-{8-[(2-methylpropyl)amino]-6-phenylimidazo [1,2-a]pyrazin-3-yl} benzamide]	8.00
O=C(NC1CC1)c1ccc(-c2cnc3c(NCCCN4CCOCC4)nc(-c4ccncc4)cn23)cc1 [Example 3-5, N-cyclopropyl-4-[8-{[3-(morpholin-4-yl)propyl]amino}-6-(pyridin-4-yl)imidazo[1,2-a]pyrazin-3-yl]benzamide]	6.67
CC(C)CNc1nc(-c2cncc(C(=O)NC(C)(C)C)c2)cn2c(-c3ccc(C(=O)NC4CC4)cc3)cnc12 [Example 1-24, N-tert-butyl-5-{3-[4-(cyclopropylcarbamoyl)phenyl]-8-[(2-methyl-propyl)amino]imidazo [1,2-a]pyrazin-6-yl} pyridine-3-carboxamide]	7.71
Cn1nccc1CNc1nc(-c2ccncc2)cn2c(-c3ccc(C(=O)NC4CC4)c(Cl)c3)cnc12 [Example 1-46, 2-chloro-N-cyclopropyl-4-[8-{[(1-methyl-1H-pyrazol-5-yl)methyl]amino}-6-(pyridin-4-yl)imidazo[1,2-a]pyrazin-3-yl]benzamide]	7.49
